Experimental data taken from publication PMC8233831, “On the Inhibitability of Natural Products Isolated from Tetradium ruticarpum towards Tyrosine Phosphatase 1B (PTP1B) and α-Glucosidase (3W37): An In Vitro and In Silico Study” (Molecules, 2021).
Like-named read-outs stand apart in the source and are kept apart here.

Assays:
[1] = tested on: Jurkat T cells clone E6.1; parameters: method as in doi:10.5012/bkcs.2010.31.04.1081; details: Jurkat T cells clone E6.1, MTT method; cited from earlier work
[2] = biological target: T1, Protein tyrosine phosphatase 1B (human recombinant) (Homo sapiens, UniProt P18031); experiment: Protein tyrosine phosphatase 1B inhibition assay (p-NPP substrate); format: biochemical; details: means ± SD of three replicates; read-out: PTP1B IC50
T1 construct: purchased Biomol International LP, Plymouth Meeting, Pennsylvania, PA, USA
T1 sequence (P18031 1-435): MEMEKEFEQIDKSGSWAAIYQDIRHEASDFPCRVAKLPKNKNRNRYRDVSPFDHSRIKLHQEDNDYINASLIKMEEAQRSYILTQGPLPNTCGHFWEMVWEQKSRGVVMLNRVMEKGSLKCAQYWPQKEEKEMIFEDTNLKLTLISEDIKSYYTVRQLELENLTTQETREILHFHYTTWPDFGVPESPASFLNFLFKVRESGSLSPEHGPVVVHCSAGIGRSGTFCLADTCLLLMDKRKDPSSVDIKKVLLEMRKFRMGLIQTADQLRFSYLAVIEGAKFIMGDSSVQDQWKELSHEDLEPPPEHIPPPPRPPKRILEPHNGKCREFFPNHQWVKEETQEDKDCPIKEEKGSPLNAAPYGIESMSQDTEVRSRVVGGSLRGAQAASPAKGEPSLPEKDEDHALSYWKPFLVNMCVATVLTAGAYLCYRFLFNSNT
Procedure: Protein tyrosine phosphatase 1B (human recombinant), i.e., PTP1B, was purchased from Biomol International LP, Plymouth Meeting, Pennsylvania, PA, USA, and the inhibitory activities of the tested samples were evaluated using the method as described. In a typical procedure, 0.05–0.1 μg of PTP1B (BIOMOL International L.P., Plymouth Meeting, Pennsylvania, PA, USA) and 4 mM p-NPP in a buffer containing 1 mM dithiothreitol, 0.1 M NaCl, 1 mM EDTA, and 50 mM citrate (pH 6.0), with or without test compounds, were added, with 100 μL final volume to each of the 96 wells. After the reaction mixture was incubated at 37 °C for 30 min, 10 M NaOH was added to quench the reaction. PTP1B enzyme activity was determined by the amount of produced p-nitrophenol at 405 nm. The nonenzymatic hydrolysis of the substrate was corrected by measuring the control, which contained no PTP1B enzyme.

[3] = tested on: experimental liver cancer cells in rats; parameters: method as in ref 32 = [32]; 32. Bai J.W. Zhang Y. Yang M.J. Effects of schinifoline on cytoskeleton of experimental hepatoma in rats observed by whole mount cell transmission electron microscopy Beijing Zhongyiyao Daxue Xuebao 2; details: by influencing cytoskeleton; cited from earlier work
[4] = tested on: Bacillus subtilis (ATCC6633); parameters: method as in PMID 23651559; details: cited from earlier work
BEL7403 = tested on: BEL7403; parameters: method as in PMID 23651559; details: BEL7403, MTT method; cited from earlier work
Hela = tested on: Hela; parameters: method as in PMID 23651559; details: MTT method; cited from earlier work
A549 cells [5] = tested on: A549 cells; parameters: method as in PMID 25470278; details: cited from earlier work
Candida albicans = tested on: Candida albicans; parameters: method as in PMID 33971509; details: cited from earlier work
α-glucosidase = experiment: α-Glucosidase inhibition assay (pNPG substrate); format: biochemical; details: means ± SD of three replicates
Procedure: The inhibitory activity of α-glucosidase was determined according to the modified method with a readily available enzyme. In a typical procedure, α-glucosidase (0.1 U/mL, Wako) was dissolved in 100 mM sodium phosphate buffer (pH 6.8) and used as an enzyme solution. A total of 1 mM p-Nitrophenyl-α-D-glucopyranoside (pNPG) in the same buffer (pH 6.8) was used as a substrate solution. […] After substrate solution (95 μL) was added, the sample solution was incubated for another 10 min at 37 °C incubator. Enzymatic activity was quantified by measuring absorbance at 405 nm using an enzyme-linked immunosorbent assay (ELISA) microplate reader (D.I Biotech Ltd., Seoul, Korea).

HepG2 = tested on: HepG2; parameters: method as in PMID 23651559; details: HepG2, MTT method; cited from earlier work
A549 cells [6] = tested on: A549 cells; parameters: method as in PMID 25470278; details: applied before 60Co γ-irradiation; cited from earlier work
[7] = tested on: Staphylococcus epidermidis (ATCC12228); parameters: method as in PMID 23651559; details: cited from earlier work
[8] = tested on: Staphyloccocus aureus (ATCC25923); parameters: method as in PMID 23651559; details: cited from earlier work
nitric oxide production = tested on: nitric oxide production; parameters: method as in PMID 26753624; details: cited from earlier work
[9] = tested on: experimental hepatocarcinogenesis; parameters: method as in ref 33 = [33]; 33. Bai J.W. Zhang Y. Wu J. Flow cytometric analysis of the schinifoline inhibition on rat hepatoma cell induced by DEN Beijing Zhongyiyao Daxue Xuebao 1999 22 34 35; details: by inhibiting hepatoma cell's DNA synthesis; cited from earlier work
BEL7402 = tested on: BEL7402; parameters: method as in PMID 23651559; details: BEL7402, MTT method; cited from earlier work
[10] = tested on: obese/diabetic KK-Ay mice; parameters: method as in PMID 24391749; details: cited from earlier work
[11] = tested on: peroxisome proliferator-activated receptors (PPARs); parameters: method as in PMID 30827999; details: cited from earlier work
sorbitol accumulation = tested on: sorbitol accumulation; parameters: method as in PMID 17498942; details: at 100 μM; cited from earlier work
aldose reductase = tested on: aldose reductase; parameters: method as in PMID 17498942; details: cited from earlier work

Compound: CCCCCCCc1cc(=O)c2ccccc2n1C [Compound 1, 2-heptyl-1-methylquinolin-4-one]
- cytotoxicity [1]: no cytotoxicity
- IC50 [2]: 24.3 ± 0.8 µM
- treatment of experimental liver cancer cells in rats [3]: can be used to treat experimental liver cancer cells in rats
- antibacterial activity [4]: no antibacterial activity
- cytotoxicity (BEL7403): no cytotoxicity
- cytotoxicity (Hela): no cytotoxicity
- cytotoxicity on A549 cells IC50 (A549 cells [5]; 6 h treatment): 33.7 ± 2.4 µg/mL
- cytotoxicity on A549 cells IC50 (A549 cells [5]; 12 h treatment): 21.9 ± 1.9 µg/mL
- cytotoxicity on A549 cells IC50 (A549 cells [5]; 24 h treatment): 16.8 ± 2.2 µg/mL
- effect on negative effects of Candida albicans in vivo (Candida albicans): inhibited the negative effects of Candida albicans in vivo
- IC50 (α-glucosidase): 92.1 ± 0.8 µM
- cytotoxicity (HepG2): no cytotoxicity
- radio-sensitivity of A549 cells (A549 cells [6]): enhanced the radio-sensitivity of A549 cells
- antibacterial activity [7]: no antibacterial activity
- antibacterial activity [8]: no antibacterial activity
- in vitro inhibitory effect on nitric oxide production (nitric oxide production): did not show in vitro inhibitory effect
- treatment of experimental hepatocarcinogenesis [9]: can treat experimental hepatocarcinogenesis
- cytotoxicity (BEL7402): no cytotoxicity

Compound: evodiamine
- obesity and insulin resistance [10]: reduced obesity and insulin resistance
- activation of PPARs [11]: activate peroxisome proliferator-activated receptors

Compound: CC(=CCOc1ccc(C=CCO)cc1)CO [Compound 2, 3-[4-(4-methylhydroxy-2-butenyloxy)-phenyl]-2-propenol]
- IC50 [2]: 47.7 ± 1.1 µM
- IC50 (α-glucosidase): 167.4 ± 1.4 µM
- in vitro inhibitory effect on nitric oxide production (nitric oxide production): did not show in vitro inhibitory effect

Compound: CNc1ccccc1C(=O)N1CCc2c([nH]c3ccccc23)C1=O [rhetsinine]
- inhibition of sorbitol accumulation (sorbitol accumulation): 79.3%
- aldose reductase inhibition (aldose reductase): inhibited aldose reductase in a dose-dependent manner
